Values quoted from earlier work, collected in patent US20150276574A1, “CELL ANALYSIS METHOD” (SYSMEX CORPORATION, priority 2014, published 2015).

Conditions: not given

Solubility in 100 g of water at 20° C.	Molecule
≥ 2 g	CC(C)=CC(=O)O [3-methylcrotonic acid]

Same assay, conditions: 100 g of water, 20° C.

Solubility in 100 g of water at 20° C.	Molecule
≥ 5 g	CCC(O)C(=O)O (centres unmarked) [2-hydroxybutyric acid]
20 g	NC(=O)NCCC[C@H](N)C(=O)O [citrulline]
44 g	O=C(O)/C=C\C(=O)O [maleic acid]
5 g	O=C(O)CC(O)C(=O)O (centres unmarked) [malic acid]
≥ 5 g	aminobutanoic acid

Molecule	Solubility in 100 g of water at 20° C.
CC1=CC(=O)OC1=O [citraconic anhydride]	≥ 10 g
O=C(O)CCCC(=O)O [glutaric acid]	43 g
